In patent US10300026B2, “Use of dihydroxyacetone in preparation of anti-cancer medicaments” (priority 2015, dated 2019):
Like-named read-outs stand apart in the source and are kept apart here.

Columns and labels:
HepG2 = experiment: CellTiter-Glo cell viability, HepG2 (human hepatoma cell line); format: cell-based
Protocol: (§1) 15 g of the commercially available 1,3-dihydroxyacetone in the solid powder form was added into 100 mL of 5% glucose (infusion bottle), then filled into 100 bottles.
(§2) After digesting the cells and counting (counting suspended cells directly), the cells were diluted to 1.25×10^5 cells/ml, inoculated into a 384-well plate (5000 cells/well) with 40 μl per well, centrifuged at 1500 rpm for 1 min, placed into the incubator and incubated overnight.
(§3) The medicaments were diluted in gradient with a 5% glucose solution to 5×, respectively. Each well was dosed with 10 μl medicament, with 4 wells (n=4) for each concentration. The cell viability was measured with Luminescence Cell Viability Assay kit after incubating for 72 hours in an incubator.
(§4) CellTiter-Glo reagent was added into each well, the volume of which is the same as that of medium. It was shaked on a shaker for 5 min, centrifuged at 1500 rpm for 1 min, and incubated in the dark at room temperature for 15 min. Then the chemiluminescence was detected with BMG PHERAstar.
(§5) The cell viability was calculated by using the following formula: Cell viability (Viability %)=100%×(LUMsample to be measured−LUMblank)/(LUMsolvent control−LUMblank)
(§6) The curve of Log[concentration] versus cell viability was fitted using Prism 6 to calculate IC50 of sample for each cell line.

SMMC-7721 = experiment: CellTiter-Glo cell viability, SMMC-7721 (human hepatoma cell line); format: cell-based
Protocol: as §1, §2, §3, §4, §5, §6

TT = experiment: CellTiter-Glo cell viability, TT (human thyroid cancer cell); format: cell-based; conditions: 72 hours
Protocol: as §1, §2, §3, §4, §5, §6

A431 = experiment: CellTiter-Glo cell viability, A431 (human cutaneous squamous cell carcinoma); format: cell-based
Protocol: as §1, §2, §3, §4, §5, §6

A375 = experiment: CellTiter-Glo cell viability, A375 (human malignant melanoma cell); format: cell-based
Protocol: as §1, §2, §3, §4, §5, §6

PANC-1 = experiment: CellTiter-Glo cell viability, PANC-1 (human pancreatic cancer cell line); format: cell-based
Protocol: as §1, §2, §3, §4, §5, §6

KB = experiment: CellTiter-Glo cell viability, KB (human oral cancer cell line); format: cell-based
Protocol: as §1, §2, §3, §4, §5, §6

U87MG = experiment: CellTiter-Glo cell viability, U87MG (human spongioblastoma cell line); format: cell-based
Protocol: as §1, §2, §3, §4, §5, §6

Calu-6 = experiment: CellTiter-Glo cell viability, Calu-6 (human degenerative cancer cell); format: cell-based
Protocol: as §1, §2, §3, §4, §5, §6

Caki-1 = experiment: CellTiter-Glo cell viability, Caki-1 (human renal clear cell carcinoma skin metastatic cell); format: cell-based
Protocol: as §1, §2, §3, §4, §5, §6

SGC7901 = experiment: CellTiter-Glo cell viability, SGC7901 (human gastric adenocarcinoma cell); format: cell-based
Protocol: as §1, §2, §3, §4, §5, §6

TF1-α = experiment: CellTiter-Glo cell viability, TF1-α (human erythroleukemia cell); format: cell-based
Protocol: as §1, §2, §3, §4, §5, §6

MDA-MB-231 = experiment: CellTiter-Glo cell viability, MDA-MB-231 (human breast cancer cell); conditions: 72 hours, n=4, read-out: IC50 calculated based on the concentration of dihydroxyacetone
Protocol: as §1, §2, §3, §4, §5, §6

[1] = at pH 6.0; cited from earlier work

Which results are given for `N.N.[Cl][Pt][Cl]` [DDP, cis-diammine platinum dichloride, reference compound]?
IC50 (HepG2; HepG2, 72 hours, n=4, read-out: IC50): 0.0139 mM; IC50 (SMMC-7721; SMMC-7721, 72 hours, n=4, read-out: IC50): 0.00619 mM; IC50 (TT; n=4, read-out: IC50): 0.00972 mM; IC50 (A431; A431, 72 hours, n=4, read-out: IC50): 0.00929 mM; IC50 (A375; A375, 72 hours, n=4, read-out: IC50): 0.00825 mM; IC50 (PANC-1; PANC-1, 72 hours, n=4, read-out: IC50): 0.0224 mM; IC50 (KB; 72 hours, n=4, read-out: IC50): 0.002 mM; IC50 (U87MG; U87MG, 72 hours, n=4, read-out: IC50): 0.024 mM; IC50 (Calu-6; Calu-6, 72 hours, n=4, read-out: IC50): 0.221 mM; IC50 (Caki-1; Caki-1, 72 hours, n=4, read-out: IC50): 0.0131 mM; IC50 (SGC7901; SGC7901, 72 hours, n=4, read-out: IC50): 0.024 mM; IC50 (TF1-α; TF1-α, 72 hours, n=4, read-out: IC50): 0.00376 mM

With `O=C(CO)CO` [Dihydroxyacetone, 1,3-dihydroxyacetone] as the compound, how does the IC50 (HepG2; Homo sapiens, HepG2, 72 h, read-out: IC50 calculated based on the concentration of dihydroxyacetone) read?
The IC50 was 12.1 mM.

What about the IC50 (MDA-MB-231) of the same compound?
Its IC50 is 7.95 mM.

What about the IC50 (SMMC-7721; Homo sapiens, SMMC-7721, 72 h, read-out: IC50 calculated based on the concentration of dihydroxyacetone) of the same compound?
The IC50 was 5.09 mM.

What about the IC50 (TT; Homo sapiens, n=4, read-out: IC50 calculated based on the concentration of dihydroxyacetone) of the same compound?
Its IC50 is 3.62 mM.

And the IC50 (A431; Homo sapiens, A-431, 72 h, read-out: IC50 calculated based on the concentration of dihydroxyacetone)?
The IC50 was 5.64 mM.

And the IC50 (A375; Homo sapiens, A-375, 72 h, read-out: IC50 calculated based on the concentration of dihydroxyacetone)?
Its IC50 is 6.18 mM.

And the IC50 (PANC-1; Homo sapiens, PANC-1, 72 h, read-out: IC50 calculated based on the concentration of dihydroxyacetone)?
The IC50 was 7.36 mM.

What about the IC50 (KB; Homo sapiens, 72 h, read-out: IC50 calculated based on the concentration of dihydroxyacetone) of the same compound?
Its IC50 is 7.51 mM.

And the IC50 (U87MG; Homo sapiens, U-87 MG, 72 h, read-out: IC50 calculated based on the concentration of dihydroxyacetone)?
Its IC50 is 9.21 mM.

What about the IC50 (Calu-6; Homo sapiens, Calu-6, 72 h, read-out: IC50 calculated based on the concentration of dihydroxyacetone) of the same compound?
The IC50 was 11 mM.

And the IC50 (Caki-1; Homo sapiens, CAKI-1, 72 h, read-out: IC50 calculated based on the concentration of dihydroxyacetone)?
Its IC50 is 10 mM.

And the IC50 (SGC7901; Homo sapiens, SGC-7901, 72 h, read-out: IC50 calculated based on the concentration of dihydroxyacetone)?
Its IC50 is 3.74 mM.

And the IC50 (TF1-α; Homo sapiens, TF-1, 72 h, read-out: IC50 calculated based on the concentration of dihydroxyacetone)?
Its IC50 is 4.89 mM.

And the Stability [1]?
The Stability was “stable”.
